Tested on: Drosophila
Assay: Drosophila development, viability and life span on compound food
Format: in vivo

`CC1(C)OB(c2ccc(/C=C/c3ccc(O)cc3)cc2)OC1(C)C` [BF102] was tested, and the “Drosophila development and viability” value (200 μM in food) was “do not affect” and the “life span of adult flies” value (adult flies fed food mixed with compound, data not shown) was “do not have any obvious effect”.

— US9988403B2, “Compositions and methods for treating cancer with aberrant lipogenic signaling” (Thomas Jefferson University, priority 2012, dated 2018)
